From US7767659B2, “Synthesis of naturally occurring ecteinascidins and related compounds” (Pharma Mar, S.A., priority 2002, dated 2010)

Key:
HeLa-APL = experiment: Inhibition of cells growth by colorimetric assay (SRB); details: Homo sapiens, 48 h
Method in brief: (§1)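 Colorimetric SRB read (490 nm) on triplicate wells after 48 h at 37 °C, 5% CO2. Dose range 10 to 10^−8 μg/ml; 5×10^3 cells/well pre-attached 18 h.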

DU-145 = experiment: as above; details: Homo sapiens, DU-145, 48 h
Method in brief: as §1

SK-BR-3 = experiment: as above; details: Homo sapiens, SK-BR-3, 48 h
Method in brief: as §1

PANC-1 = experiment: as above; details: Homo sapiens, PANC-1, 48 h
Method in brief: as §1

SK-MEL-28 = experiment: as above; details: Homo sapiens, SK-MEL-28, 48 h
Method in brief: as §1

K-562 = experiment: as above; details: Homo sapiens, K562, 48 h
Method in brief: as §1

LNCaP = experiment: as above; details: Homo sapiens, LNCaP, 48 h
Method in brief: as §1

HeLa = experiment: as above; details: Homo sapiens, HeLa, 48 h
Method in brief: as §1

LoVo-Dox = experiment: as above; details: Homo sapiens, 48 h
Method in brief: as §1

IGROV-ET = experiment: as above; details: Homo sapiens, 48 h
Method in brief: as §1

IGROV-1 = experiment: as above; details: Homo sapiens, IGROV-1, 48 h
Method in brief: as §1

A-549 = experiment: cells; details: Homo sapiens, A549, 48 h
Method in brief: as §1

HT-29 = experiment: cells; details: Homo sapiens, HT-29, 48 h
Method in brief: as §1

LoVo = experiment: cells; details: Homo sapiens, LoVo, 48 h
Method in brief: as §1

`CCCCCCCCCCCCCCCC(=O)NC1CS[C@@H]2c3c(OC(C)=O)c(C)c4c(c3[C@H](COC1=O)N1C2[C@@H]2N[C@@H](Cc3cc(C)c(OC)c(O)c32)[C@@H]1C#N)OCO4` (stereo partly drawn) [compound 32] was tested, and the GI50 (HeLa-APL; read-out: GI50 HELA-APL) was 0.0339 µM, the CC50 (HeLa-APL; read-out: LC50 HELA-APL) was 0.108 µM and the IC (TGI) (HeLa-APL; read-out: TGI HELA-APL) was 0.0605 µM. For the same compound, the GI50 (DU-145; read-out: GI50 DU145) was 2.48 µM, the CC50 (DU-145; read-out: LC50 DU145) was 9.39 µM and the IC (TGI) (DU-145; read-out: TGI DU145) was 4.83 µM. For the same compound, the GI50 (SK-BR-3; read-out: GI50 SK-BR3) was 0.263 µM, the CC50 (SK-BR-3; read-out: LC50 SK-BR3) was 7.52 µM and the IC (TGI) (SK-BR-3; read-out: TGI SK-BR3) was 1.66 µM. The GI50 (PANC-1; read-out: GI50 PANC-1) was 2.56 µM, the CC50 (PANC-1; read-out: LC50 PANC-1) was 8.79 µM and the IC (TGI) (PANC-1; read-out: TGI PANC-1) was 4.75 µM. It also gave a GI50 (SK-MEL-28; read-out: GI50 MEL-28) of 2.41 µM, a CC50 (SK-MEL-28; read-out: LC50 MEL-28) of 7.13 µM and an IC (TGI) (SK-MEL-28; read-out: TGI MEL-28) of 4.14 µM. It also gave a GI50 (K-562; read-out: GI50 K562) of 0.694 µM, a CC50 (K-562; read-out: LC50 K562) of 6.81 µM and an IC (TGI) (K-562; read-out: TGI K562) of 2.2 µM. For the same compound, the GI50 (LNCaP; read-out: GI50 LNCAP) was 1.77 µM, the CC50 (LNCaP; read-out: LC50 LNCAP) was 6.41 µM and the IC (TGI) (LNCaP; read-out: TGI LNCAP) was 3.36 µM. It also gave a GI50 (HeLa; read-out: GI50 HELA) of 0.253 µM, a CC50 (HeLa; read-out: LC50 HELA) of 0.689 µM and an IC (TGI) (HeLa; read-out: TGI HELA) of 0.418 µM. For the same compound, the GI50 (LoVo-Dox; read-out: GI50 LOVO-DOX) was 0.802 µM, the CC50 (LoVo-Dox; read-out: LC50 LOVO-DOX) was 6.76 µM and the IC (TGI) (LoVo-Dox; read-out: TGI LOVO-DOX) was 2.48 µM. It also gave a GI50 (IGROV-ET; read-out: GI50 IGROV-ET) of 2.85 µM, a CC50 (IGROV-ET; read-out: LC50 IGROV-ET) of 9.67 µM and an IC (TGI) (IGROV-ET; read-out: TGI IGROV-ET) of 5.24 µM. It also gave a GI50 (IGROV-1; read-out: GI50 IGROV) of 1.97 µM, a CC50 (IGROV-1; read-out: LC50 IGROV) of 7.74 µM and an IC (TGI) (IGROV-1; read-out: TGI IGROV) of 3.91 µM. It also gave a GI50 (A-549; read-out: GI50 A549) of 2.38 µM, a CC50 (A-549; read-out: LC50 A549) of 7.7 µM and an IC (TGI) (A-549; read-out: TGI A549) of 4.29 µM. It also gave a GI50 (HT-29; read-out: GI50 HT29) of 3.48 µM, a CC50 (HT-29; read-out: LC50 HT29) of 10.7 µM and an IC (TGI) (HT-29; read-out: TGI HT29) of 6.1 µM. For the same compound, the GI50 (LoVo; read-out: GI50 LOVO) was 1.89 µM, the CC50 (LoVo; read-out: LC50 LOVO) was 7.39 µM and the IC (TGI) (LoVo; read-out: TGI LOVO) was 3.76 µM.
